pIC50: −log10 of the molar value.
What was measured:
Type in all cases: biochemical
Human HDAC6 = target: T1, Human HDAC6 (Homo sapiens, UniProt Q9UBN7); assay: In vitro HDAC inhibition assay, HDAC6; settings: read-out: HDAC isoform IC50, HDAC6
T1 construct: Full length with N-terminal GST tag, MW=159 kDa; GST (N); host or cells: baculovirus expression system, Sf9 cells
T1 sequence (Q9UBN7 1-1215): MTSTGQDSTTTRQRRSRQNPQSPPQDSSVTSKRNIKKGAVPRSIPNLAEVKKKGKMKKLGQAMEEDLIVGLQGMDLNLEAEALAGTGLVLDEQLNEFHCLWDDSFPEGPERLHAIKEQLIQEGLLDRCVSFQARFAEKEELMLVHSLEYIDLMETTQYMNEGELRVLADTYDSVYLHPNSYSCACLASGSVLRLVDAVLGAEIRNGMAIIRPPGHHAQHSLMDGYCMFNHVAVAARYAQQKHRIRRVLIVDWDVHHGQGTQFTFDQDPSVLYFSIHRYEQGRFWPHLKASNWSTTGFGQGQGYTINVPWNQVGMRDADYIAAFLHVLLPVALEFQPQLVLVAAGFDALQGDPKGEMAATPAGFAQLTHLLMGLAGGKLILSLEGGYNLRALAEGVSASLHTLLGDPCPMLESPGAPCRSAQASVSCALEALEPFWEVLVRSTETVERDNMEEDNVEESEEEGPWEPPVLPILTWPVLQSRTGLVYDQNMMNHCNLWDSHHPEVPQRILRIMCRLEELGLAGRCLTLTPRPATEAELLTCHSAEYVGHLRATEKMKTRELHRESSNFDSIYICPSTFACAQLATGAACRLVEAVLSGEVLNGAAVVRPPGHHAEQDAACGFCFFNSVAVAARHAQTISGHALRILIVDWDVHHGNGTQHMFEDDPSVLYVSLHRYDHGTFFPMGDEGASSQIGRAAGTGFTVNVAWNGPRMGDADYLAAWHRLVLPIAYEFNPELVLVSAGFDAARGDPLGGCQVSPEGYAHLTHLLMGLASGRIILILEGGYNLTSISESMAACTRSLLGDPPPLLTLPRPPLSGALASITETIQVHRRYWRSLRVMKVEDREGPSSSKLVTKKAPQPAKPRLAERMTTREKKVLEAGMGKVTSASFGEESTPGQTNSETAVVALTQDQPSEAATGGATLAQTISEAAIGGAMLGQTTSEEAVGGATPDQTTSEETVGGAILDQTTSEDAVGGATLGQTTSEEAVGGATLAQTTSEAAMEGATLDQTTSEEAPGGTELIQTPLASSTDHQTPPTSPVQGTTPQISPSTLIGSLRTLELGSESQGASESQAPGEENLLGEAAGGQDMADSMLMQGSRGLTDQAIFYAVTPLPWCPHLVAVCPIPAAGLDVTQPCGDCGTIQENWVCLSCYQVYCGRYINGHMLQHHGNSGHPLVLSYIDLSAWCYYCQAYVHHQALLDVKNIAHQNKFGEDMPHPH

HDAC10 = target: T2, HDAC10 (Homo sapiens, UniProt Q969S8); assay: In vitro HDAC inhibition assay, HDAC10
T2 sequence (Q969S8 1-669): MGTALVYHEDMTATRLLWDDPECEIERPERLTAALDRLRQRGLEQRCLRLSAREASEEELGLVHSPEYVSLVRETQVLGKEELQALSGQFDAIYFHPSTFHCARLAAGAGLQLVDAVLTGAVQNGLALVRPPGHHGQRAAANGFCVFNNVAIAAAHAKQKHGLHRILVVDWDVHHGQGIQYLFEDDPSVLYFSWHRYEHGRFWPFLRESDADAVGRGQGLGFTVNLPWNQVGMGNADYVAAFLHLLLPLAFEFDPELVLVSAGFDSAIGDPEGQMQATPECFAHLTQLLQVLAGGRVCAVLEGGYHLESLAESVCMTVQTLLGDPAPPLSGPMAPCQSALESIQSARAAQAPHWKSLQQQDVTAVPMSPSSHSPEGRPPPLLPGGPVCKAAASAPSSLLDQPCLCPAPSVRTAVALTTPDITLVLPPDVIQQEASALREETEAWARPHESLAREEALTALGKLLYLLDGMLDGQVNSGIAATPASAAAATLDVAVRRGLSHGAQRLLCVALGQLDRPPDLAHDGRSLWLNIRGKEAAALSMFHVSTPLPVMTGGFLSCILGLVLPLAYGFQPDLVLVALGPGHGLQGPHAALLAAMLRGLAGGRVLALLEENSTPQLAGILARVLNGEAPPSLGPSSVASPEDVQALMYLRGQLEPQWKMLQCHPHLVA

HDAC2 = HDAC2 (Homo sapiens, UniProt Q92769); assay: In vitro HDAC inhibition assay, HDAC2
HDAC2, sequence (Q92769 whole entry, canonical isoform): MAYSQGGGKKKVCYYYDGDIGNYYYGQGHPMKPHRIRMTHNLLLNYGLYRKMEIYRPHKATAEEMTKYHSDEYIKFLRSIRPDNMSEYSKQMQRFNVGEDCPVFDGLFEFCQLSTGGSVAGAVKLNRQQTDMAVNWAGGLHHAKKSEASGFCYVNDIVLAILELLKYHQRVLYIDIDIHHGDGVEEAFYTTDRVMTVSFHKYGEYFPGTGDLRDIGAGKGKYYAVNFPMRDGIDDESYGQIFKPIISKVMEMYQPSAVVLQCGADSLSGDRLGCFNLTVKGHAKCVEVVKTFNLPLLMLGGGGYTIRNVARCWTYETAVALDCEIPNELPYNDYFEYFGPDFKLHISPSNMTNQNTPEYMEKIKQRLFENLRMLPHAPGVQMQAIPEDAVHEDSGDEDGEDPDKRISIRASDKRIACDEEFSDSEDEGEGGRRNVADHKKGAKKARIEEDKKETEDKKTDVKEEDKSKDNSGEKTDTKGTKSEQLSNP

HDAC9 = HDAC9 (Homo sapiens, UniProt Q9UKV0); assay: HDAC isoform inhibition, HDAC9
HDAC9, sequence (Q9UKV0 whole entry, canonical isoform): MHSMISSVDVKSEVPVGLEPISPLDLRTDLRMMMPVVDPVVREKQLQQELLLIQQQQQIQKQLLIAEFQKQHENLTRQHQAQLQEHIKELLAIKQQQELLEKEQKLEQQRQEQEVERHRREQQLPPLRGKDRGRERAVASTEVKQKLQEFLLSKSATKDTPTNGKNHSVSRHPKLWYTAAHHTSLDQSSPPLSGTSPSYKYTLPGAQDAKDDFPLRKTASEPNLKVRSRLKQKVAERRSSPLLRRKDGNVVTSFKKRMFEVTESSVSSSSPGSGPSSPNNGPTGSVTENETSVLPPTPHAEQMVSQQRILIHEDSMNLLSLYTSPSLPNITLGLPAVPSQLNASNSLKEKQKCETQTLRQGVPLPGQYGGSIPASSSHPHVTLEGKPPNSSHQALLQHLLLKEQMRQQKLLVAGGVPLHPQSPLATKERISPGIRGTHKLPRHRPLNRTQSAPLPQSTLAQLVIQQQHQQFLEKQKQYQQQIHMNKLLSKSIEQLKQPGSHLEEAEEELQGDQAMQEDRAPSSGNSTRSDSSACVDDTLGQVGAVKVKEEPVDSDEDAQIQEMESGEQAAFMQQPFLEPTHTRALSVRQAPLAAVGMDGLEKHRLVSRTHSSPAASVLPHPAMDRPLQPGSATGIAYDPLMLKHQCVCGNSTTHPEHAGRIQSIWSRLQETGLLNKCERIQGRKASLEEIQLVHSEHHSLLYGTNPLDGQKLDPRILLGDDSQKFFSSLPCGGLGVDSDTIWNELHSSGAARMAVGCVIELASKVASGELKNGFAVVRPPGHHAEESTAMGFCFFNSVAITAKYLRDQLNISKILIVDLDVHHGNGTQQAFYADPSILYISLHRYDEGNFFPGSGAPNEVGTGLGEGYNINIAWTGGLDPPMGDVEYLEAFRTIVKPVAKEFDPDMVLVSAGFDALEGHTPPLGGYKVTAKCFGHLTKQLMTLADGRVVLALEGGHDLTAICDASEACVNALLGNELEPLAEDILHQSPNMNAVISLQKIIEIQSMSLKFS

HDAC4 = HDAC4 (Homo sapiens, UniProt P56524); assay: HDAC isoform inhibition, HDAC4
HDAC4, sequence (P56524 whole entry, canonical isoform): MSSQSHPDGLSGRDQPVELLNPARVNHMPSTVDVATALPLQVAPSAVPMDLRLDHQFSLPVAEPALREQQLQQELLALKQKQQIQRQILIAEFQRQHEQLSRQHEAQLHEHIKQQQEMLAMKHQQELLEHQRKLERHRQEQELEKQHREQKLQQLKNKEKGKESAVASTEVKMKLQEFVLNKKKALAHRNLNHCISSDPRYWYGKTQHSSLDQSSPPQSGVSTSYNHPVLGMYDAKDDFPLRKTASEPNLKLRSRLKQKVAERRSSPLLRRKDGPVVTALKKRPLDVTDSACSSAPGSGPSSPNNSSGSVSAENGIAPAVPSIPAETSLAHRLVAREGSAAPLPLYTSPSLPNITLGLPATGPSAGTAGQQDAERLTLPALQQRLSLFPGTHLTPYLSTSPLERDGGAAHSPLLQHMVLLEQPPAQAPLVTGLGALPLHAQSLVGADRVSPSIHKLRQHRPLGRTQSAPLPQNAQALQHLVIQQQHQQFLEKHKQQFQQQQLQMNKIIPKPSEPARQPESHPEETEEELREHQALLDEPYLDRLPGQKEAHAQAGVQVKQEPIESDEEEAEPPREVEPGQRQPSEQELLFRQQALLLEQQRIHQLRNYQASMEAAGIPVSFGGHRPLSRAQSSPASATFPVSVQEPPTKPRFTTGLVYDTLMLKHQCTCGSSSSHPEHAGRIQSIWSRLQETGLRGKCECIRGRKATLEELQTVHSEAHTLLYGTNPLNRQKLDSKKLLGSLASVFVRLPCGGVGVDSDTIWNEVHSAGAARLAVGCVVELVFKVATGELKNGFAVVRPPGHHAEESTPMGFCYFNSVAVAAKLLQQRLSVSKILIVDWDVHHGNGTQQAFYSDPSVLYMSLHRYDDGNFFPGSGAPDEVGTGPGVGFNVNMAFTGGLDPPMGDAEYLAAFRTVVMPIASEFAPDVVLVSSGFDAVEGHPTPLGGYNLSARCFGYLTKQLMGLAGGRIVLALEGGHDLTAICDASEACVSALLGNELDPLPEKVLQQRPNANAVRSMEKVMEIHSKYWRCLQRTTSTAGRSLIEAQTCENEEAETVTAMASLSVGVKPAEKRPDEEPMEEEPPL

HDAC3/NcoR2 complex = HDAC3/NcoR2 complex (Homo sapiens, UniProt O15379); assay: In vitro HDAC inhibition assay, HDAC3
HDAC3/NcoR2 complex, sequence (O15379 whole entry, canonical isoform): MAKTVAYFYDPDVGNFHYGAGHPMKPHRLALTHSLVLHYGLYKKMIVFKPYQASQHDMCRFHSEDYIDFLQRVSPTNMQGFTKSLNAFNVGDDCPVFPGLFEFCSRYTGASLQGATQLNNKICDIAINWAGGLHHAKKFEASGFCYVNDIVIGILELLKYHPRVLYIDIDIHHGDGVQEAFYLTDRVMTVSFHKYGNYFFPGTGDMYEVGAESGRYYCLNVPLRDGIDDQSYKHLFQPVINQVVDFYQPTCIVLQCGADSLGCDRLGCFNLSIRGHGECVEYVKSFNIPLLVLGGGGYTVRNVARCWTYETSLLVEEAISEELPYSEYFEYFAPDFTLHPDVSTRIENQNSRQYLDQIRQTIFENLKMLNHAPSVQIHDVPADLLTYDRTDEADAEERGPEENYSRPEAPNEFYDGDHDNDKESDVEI
HDAC3/NcoR2 complex, sequence (Q9Y618 395-489 partner limits assumed): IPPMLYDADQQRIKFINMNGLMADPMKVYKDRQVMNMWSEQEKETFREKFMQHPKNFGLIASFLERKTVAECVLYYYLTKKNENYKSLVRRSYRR

HDAC8 = target: T3, HDAC8 (Homo sapiens, UniProt Q9BY41); assay: HDAC isoform inhibition, HDAC8
T3 sequence (Q9BY41 1-377): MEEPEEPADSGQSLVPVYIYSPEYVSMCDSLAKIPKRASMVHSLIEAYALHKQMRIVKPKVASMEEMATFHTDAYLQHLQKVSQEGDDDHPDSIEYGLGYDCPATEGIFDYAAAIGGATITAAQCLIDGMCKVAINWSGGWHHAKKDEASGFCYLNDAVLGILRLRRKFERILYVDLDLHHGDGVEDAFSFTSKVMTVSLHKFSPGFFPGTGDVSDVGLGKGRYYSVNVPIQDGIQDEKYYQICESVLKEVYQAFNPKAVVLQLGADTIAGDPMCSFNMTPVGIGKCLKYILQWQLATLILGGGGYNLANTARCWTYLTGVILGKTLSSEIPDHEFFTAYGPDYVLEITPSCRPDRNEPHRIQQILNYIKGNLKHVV

HDAC5 = HDAC5 (Homo sapiens, UniProt Q9UQL6); assay: HDAC isoform inhibition, HDAC5
HDAC5, sequence (Q9UQL6 whole entry, canonical isoform): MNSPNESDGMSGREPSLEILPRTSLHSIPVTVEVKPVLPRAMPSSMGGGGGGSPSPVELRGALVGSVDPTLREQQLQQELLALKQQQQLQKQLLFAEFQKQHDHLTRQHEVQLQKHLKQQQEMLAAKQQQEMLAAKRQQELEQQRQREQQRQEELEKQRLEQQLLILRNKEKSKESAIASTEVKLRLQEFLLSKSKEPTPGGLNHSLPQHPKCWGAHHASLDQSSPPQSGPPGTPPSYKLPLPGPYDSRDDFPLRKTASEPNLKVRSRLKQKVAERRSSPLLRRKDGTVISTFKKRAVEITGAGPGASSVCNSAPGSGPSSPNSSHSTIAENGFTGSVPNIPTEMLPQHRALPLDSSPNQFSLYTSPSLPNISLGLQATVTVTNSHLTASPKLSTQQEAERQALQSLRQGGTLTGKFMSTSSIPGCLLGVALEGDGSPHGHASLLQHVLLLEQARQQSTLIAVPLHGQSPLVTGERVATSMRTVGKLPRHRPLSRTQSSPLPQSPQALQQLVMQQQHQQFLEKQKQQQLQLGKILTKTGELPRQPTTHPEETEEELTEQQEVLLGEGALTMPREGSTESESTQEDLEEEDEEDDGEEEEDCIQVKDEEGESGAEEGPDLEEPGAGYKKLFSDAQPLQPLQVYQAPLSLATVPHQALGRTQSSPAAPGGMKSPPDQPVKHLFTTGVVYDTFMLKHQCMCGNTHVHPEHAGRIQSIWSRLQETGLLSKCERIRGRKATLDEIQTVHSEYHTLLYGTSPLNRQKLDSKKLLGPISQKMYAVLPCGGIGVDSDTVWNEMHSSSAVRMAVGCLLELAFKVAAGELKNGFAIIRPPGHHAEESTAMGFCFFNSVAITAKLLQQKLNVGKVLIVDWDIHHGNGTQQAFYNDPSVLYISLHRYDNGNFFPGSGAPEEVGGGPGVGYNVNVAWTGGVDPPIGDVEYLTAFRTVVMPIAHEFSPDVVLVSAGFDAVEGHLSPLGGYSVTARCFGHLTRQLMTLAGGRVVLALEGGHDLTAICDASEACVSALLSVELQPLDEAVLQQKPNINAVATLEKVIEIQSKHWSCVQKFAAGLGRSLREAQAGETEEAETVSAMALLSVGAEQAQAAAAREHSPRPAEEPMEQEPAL

CC(C)(C)OC(=O)Nc1ccc(-c2cc(C(=O)NCCc3cc(C(=O)NO)no3)no2)cc1 [Compound 6, (4-{3-[2-(3-Hydroxycarbamoyl-isoxazol-5-yl)-ethylcarbamoyl]-isoxazol-5-yl}-phenyl)-carbamic acid tert-butyl ester] was tested, and the pIC50 (Human HDAC6) was 8.22, the “Selectivity for HDAC6 (fold) over HDAC10” value (HDAC10) was over 16000 fold and the pIC50 (HDAC10; NI = No inhibition at a concentration of 50 pM (footnote b), read-out: HDAC isoform IC50, HDAC10) was under 4.00. The “Selectivity for HDAC6 (fold) over HDAC2” value (HDAC2) was 20500 fold, the pIC50 (HDAC2; NI = No inhibition at a concentration of 50 pM (footnote b), read-out: HDAC isoform IC50, HDAC2) was 3.91 and the pIC50 (HDAC9) was 4.89. The “Selectivity for HDAC6 (fold) over HDAC9” value (HDAC9) was 2130 fold, the pIC50 (HDAC4) was 3.89 and the “Selectivity for HDAC6 (fold) over HDAC4” value (HDAC4) was 21600 fold. For the same molecule, the “Selectivity for HDAC6 (fold) over HDAC3” value (HDAC3/NcoR2 complex) was 3800 fold, the pIC50 (HDAC3/NcoR2 complex; NI = No inhibition at a concentration of 50 pM (footnote b), read-out: HDAC isoform IC50, HDAC3) was 4.64 and the pIC50 (HDAC8) was 6.09. The “Selectivity for HDAC6 (fold) over HDAC8” value (HDAC8) was 135 fold, the pIC50 (HDAC5) was 4.46 and the “Selectivity for HDAC6 (fold) over HDAC5” value (HDAC5) was 5750 fold.

— patent publication US11739064B2, “HDAC inhibitors and therapeutic methods using the same” (THE BOARD OF TRUSTEES OF THE UNIVERSITY OF ILLINOIS, priority 2015, dated 2023)
